Test results as given in patent US11680047B2, “Enhanced erythropoiesis and iron metabolism” (FibroGen, Inc., priority 2003, dated 2023).

How the values were obtained:
rat model of ACD = experiment: Rat model of ACD (PG-PS), Experimental Series 1; assay type: in vivo; conditions: anemic rats, 60 mg/kg PO
Text: Anemia of chronic disease (ACD) is associated with various inflammatory conditions, including arthritis, neoplastic disease, and other disorders associated with chronic inflammation. A rat model of ACD was used to examine the effects of HIF stabilization using methods and compounds of the present invention on treating anemia associated with chronic disease. In this animal model, ACD is induced in rats by peptidoglycan-polysaccharide polymers. (See, e.g., Sartor et al. (1989) Infection and Immunity 57:1177-1185.) In this model, animals develop severe, acute anemia in the initial stages, followed by moderately severe chronic microcytic anemia in later stages.
Female Lewis rats of approximately 160 grams were challenged with PG-PS 10S (Lee Laboratories, 15 μg/gm body weight, intra-peritoneal). PG-PS 10S contains purified peptidoglycan-polysaccharide polymers isolated from the cell wall of Streptococcus pyogenes, Group A, D58 strain. Arthritis and anemia were allowed to develop for 35 days. On day 35, blood samples (approximately 400 μl) were taken from the tail vein under general anesthesia (Isoflurane) for CBC and reticulocyte counts (performed by Quality Clinical Labs). Animals with a spun hematocrit level at or above 45% were considered non-anemic and were removed from the study.
On day 35 following PG-PS injection, anemic animals received vehicle alone or were treated with compound A (60 mg/kg, PO) for two consecutive days per week for two weeks. Automated complete blood counts (CBC) were measured on day 35 (see above), 39, 42, and 49; serum iron levels were measured on day 49.

sproutin = experiment: Intestinal sproutin mRNA in rats of ACD Series 2 (microarray); assay type: in vivo, rat
Description: (§1) At week 6 following administration of compound A in anemic animals (40 mg/kg, twice a week), microarray analysis was performed to examine expression of genes encoding proteins involved with iron transport and absorption in intestine. Microarray analysis was performed using methods described above, using The Rat Genome 230A array (Affymetirx), which represents all sequence in the Rat Unigene database build 99 (National Center for Biotechnology Information, Bethesda, Md.), including approximately 4,699 well-characterized rat genes and approximately 10,467 EST sequences and approximately 700 non-EST sequences.

NRAMP2 = experiment: Intestinal NRAMP2 mRNA in rats of ACD Series 2 (microarray); assay type: in vivo, rat
Description: as §1

E-selectin = experiment: Cell surface E-selectin (cell-based ELISA) in HUVEC pretreated with compound, then cytokines; set-up: species or system human; conditions: HUVEC pretreated 24 hours
Description: HUVEC were treated with vehicle control or various concentrations of compound B or compound C for 24 hours. Cells were washed and then stimulated with either 1 ng/ml TNF-α, 1 ng/ml IL-1β, or a combination of 1 ng/ml each of TNF-α, IL-1β, and IFN-γ for 4 hours. Cell surface expression of E-selectin was measured by cell-based ELISA.

[1] = anemic rats, 40 mg/kg twice a week, week 6

O=C(O)CNC(=O)c1nc(Cl)c2ccccc2c1O [Compound A, [(1-Chloro-4-hydroxy-isoquinoline-3-carbonyl)-amino]-acetic acid]
hematocrit levels (rat model of ACD; 5 days after initiation of treatment): approximately 37%
hemoglobin levels (rat model of ACD; as early as 5 days (day 39)): increased hemoglobin levels in anemic animals
Reticulocyte levels (rat model of ACD; day 39): approximately 10 % of red cell counts
hemoglobin levels (rat model of ACD; day 49): reaching a level comparable to control non-anemic animals
hematocrit levels (rat model of ACD; following a second dosing): approximately 40%
red blood cell count (rat model of ACD; from day 39): increased red blood cell count in anemic animals
mean corpuscular volume (rat model of ACD; from day 39, vs non-treated anemic animals): increased mean corpuscular volume
mean corpuscular hemoglobin levels (rat model of ACD; vs non-treated anemic animals): increased mean corpuscular hemoglobin levels
intestinal expression of sproutin (sproutin; [1]): increased expression of both NRAMP2 and sproutin in intestine
intestinal expression of mRNA for sproutin (sproutin; control rats): increased intestinal expression
intestinal expression of NRAMP2 (NRAMP2; [1]): increased expression of both NRAMP2 and sproutin in intestine
intestinal expression of mRNA for NRAMP2 (NRAMP2; control rats): increased intestinal expression of mRNA for NRAMP2

O=C(O)CNC(=O)c1ncc2cc(Oc3ccccc3)ccc2c1O [Compound B, [(4-Hydroxy-7-phenoxy-isoquinoline-3-carbonyl)-amino]-acetic acid]
induction of cell surface E-selectin expression (E-selectin; then 1 ng/ml TNF-α or 1 ng/ml IL-1β for 4 hours): inhibited the induction of cell surface E-selectin expression
cell surface E-selectin expression (E-selectin; then TNF-α, IL-1β and IFN-γ, 1 ng/ml each, 4 hours): decreased E-selectin expression
